Measured values published in US12178791B2, “Haloallylamine sulfone derivative inhibitors of lysyl oxidases and uses thereof” (Syntara Limited, priority 2018, dated 2024).
pIC50: −log10 of the molar value. Structures can show the parent of a compound that is named as a salt.

Columns and labels:
Type in all cases: biochemical
[1] = target: Human recombinant SSAO/VAP-1 (Homo sapiens (Human), UniProt Q16853); assay: Inhibition of human recombinant SSAO/VAP-1; settings: 30 min preincubation at 37 °C, benzylamine 600 μM; read-out: SSAO/VAP-1 Activity IC50
Experimental: Human recombinant SSAO/VAP-1 amine oxidase activity was determined using the coupled colorimetric method as described for monoamine oxidase, copper-containing amine oxidases and related enzymes (Holt A. and Palcic M., A peroxidase-coupled continuous absorbance plate-reader assay for flavin monoamine oxidases, copper-containing amine oxidases and related enzymes. Nat Protoc 2006; 1: 2498-2505). Briefly, a cloned cDNA template corresponding to residues 34-763 of human SSAO/VAP-1, and incorporating a mouse Ig kappa (κ) signal sequence, N-terminal flag epitope tag and tobacco etch virus (TEV) cleavage site, was assembled in a mammalian expression vector (pLO-CMV) by Geneart AG. This vector containing human SSAO/VAP-1 residues was transfected into CHO-Kl glycosylation mutant cell line, Lec 8. A clone stably expressing human SSAO/VAP-1 was isolated and cultured in large scale. Active human SSAO/VAP-1 was purified and recovered using immunoaffinity chromatography. This was used as the source for SSAO/VAP-1 activity. A high-throughput colorimetric assay was developed using either 96 or 384 well format. Briefly, in a standard 96 well plate assay 50 μL of purified human SSAO/VAP-1 (0.25 μg/mL) in 0.1 M sodium phosphate buffer (pH 7.4) was added into each well. Test compounds were dissolved in DMSO and tested in a Concentration Response Curve (CRC) with 4-11 data points, typically in the micromolar or nanomolar range after incubation with human SSAO/VAP-1 for 30 min at 37° C. After 30 min incubation, 50 μL of the reaction mixture containing 600 μM benzylamine (Sigma Aldrich), 120 μM Amplex Red (Sigma Aldrich) and 1.5 U/mL horseradish peroxidase (Sigma Aldrich) prepared in 0.1 M sodium phosphate buffer (pH 7.4) were added to the corresponding well. The fluorescence unit (RFU) was read every 2.5 min for 30 min at 37° C. excitation 565 nm and emission 590 (Optima; BMG labtech). The slope of the kinetics for each well was calculated using MARS data analysis software (BMG labtech) and this value was used to deduce the IC50 value (Dotmatics).

LOXL1 = LOXL1 (Homo sapiens (Human), UniProt Q08397); assay: Jump dilution experiment, sustained inhibition of LOXL1; settings: jump dilution after 40 min at 37 °C with 10× or 30× IC50; vs non-inhibited controls;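 further: 30× IC50 used only where needed so inhibitor exceeds enzyme concentration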
Experimental: (§1) Jump Dilution experiment: The assay was developed using a 96 well format and the starting enzyme concentration was set 100 times higher than for the inhibition studies. […] After the incubation, the mixture was diluted 50× in assay buffer, followed by a further 2× dilution in Amplex Red-horseradish peroxidase-putrescine reaction mix (same as per the inhibition studies) prior to the fluorescent measurement. Results were expressed in % recovery of the signal after a specified time by comparison with non-inhibited controls.

Recombinant human MAO-B = Recombinant human MAO-B (Homo sapiens (Human), UniProt P27338); assay: Inhibition of human recombinant MAO-B; settings: benzylamine 100 μM
Experimental: The specificity of the compounds of this invention was tested by determining their ability to inhibit MAO-B activities in vitro. Recombinant human MAO-B (0.06 mg/mL; Sigma Aldrich) was used as source of MAO-B enzyme activities. The assay was performed in a similar way as for human SSAO/VAP-1 (Example 28) except, the substrate benzylamine was used at 100 μM.

LOXL2 [2] = target: T1, LOXL2 (Homo sapiens (Human), UniProt Q9Y4K0); assay: Jump dilution experiment, sustained inhibition of LOXL2; settings: jump dilution after 40 min at 37 °C with 10× or 30× IC50; vs non-inhibited controls;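 further: 30× IC50 used only where needed so inhibitor exceeds enzyme concentration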
Experimental: as §1

LOXL2 [3] = target: T1, LOXL2; assay: LOXL2 inhibition, Amplex Red oxidation assay; settings: 30 min preincubation at 37 °C, putrescine substrate
Source text: (§2) Lysyl oxidase (LOX) is an extracellular copper dependent enzyme which oxidizes peptidyl lysine and hydroxylysine residues in collagen and lysine residues in elastin to produce peptidyl alpha-aminoadipic-delta-semialdehydes. […] There are five LOX family members; these are LOX, LOXL1, LOXL2, LOXL3 and LOXL4. LOX and LOXL family members can be acquired as recombinant active proteins from commercial sources, or extracted from animal tissues like bovine aorta, tendons, pig skin; or prepared from cell cultures. The inhibitory effects of the compounds of the present invention were tested against the given LOX-LOXL preparation using a method based on the detection of hydrogen peroxide with an Amplex Red oxidation assay (Zhou et al. A stable nonfluorescent derivative of resorufin for the fluorometric determination of trace hydrogen peroxide: applications in detecting the activity of phagocyte NADPH oxidase and other oxidases. Anal. Biochem. 1997; 253, 162-168). The assay was developed using either 384 or 96 well format. Briefly, in a standard black, clear bottom 384 well plate assay 25 μL of a dilution of any of the isoenzymes and orthologues in 1.2 M urea, 50 mM sodium borate buffer (pH 8.2) were added into each well in the presence of 1 μM mofegiline and 0.5 mM pargyline (to inhibit SSAO and MAO-B and MAO-A, respectively; not necessary if the enzyme is from a recombinant or purified form). Test compounds were dissolved in DMSO and tested in a Concentration Response Curve (CRC) with 11 data points, typically in the micromolar or nanomolar range after incubation with the enzyme for 30 min at 37° C. Twenty five μL of a reaction mixture containing twice the KM concentration of putrescine (Sigma Aldrich, e.g. 20 mM for LOX, or 10 mM for LOXL2 and LOXL3), 120 μM Amplex Red (Sigma Aldrich) and 1.5 U/mL horseradish peroxidase (Sigma Aldrich) prepared in 1.2 M urea, 50 mM sodium borate buffer (pH 8.2) were then added to the corresponding wells. The above volumes were doubled in the case of 96 wells plate. The fluorescence (RFU) was read every 2.5 min for 30 min at […] 37° C., excitation 565 nm and emission 590 (Optima; BMG labtech). The slope of the kinetics for each well was calculated using MARS data analysis software (BMG labtech) and this value was used to deduce the IC50 value (Dotmatics).

Bovine LOX = Bovine LOX (Bos taurus (Bovine), UniProt P33072); assay: LOX inhibition, Amplex Red oxidation assay; settings: 30 min preincubation at 37 °C, putrescine substrate
Source text: as §2, with “Test compounds were dissolved in DMSO and tested in a Concentration Response Curve (CRC) with 11 data points, typically in the micromolar or nanomolar range after incubation with the enzyme for 30 min at 37° C.” left out

T1 sequence (Q9Y4K0 26-774): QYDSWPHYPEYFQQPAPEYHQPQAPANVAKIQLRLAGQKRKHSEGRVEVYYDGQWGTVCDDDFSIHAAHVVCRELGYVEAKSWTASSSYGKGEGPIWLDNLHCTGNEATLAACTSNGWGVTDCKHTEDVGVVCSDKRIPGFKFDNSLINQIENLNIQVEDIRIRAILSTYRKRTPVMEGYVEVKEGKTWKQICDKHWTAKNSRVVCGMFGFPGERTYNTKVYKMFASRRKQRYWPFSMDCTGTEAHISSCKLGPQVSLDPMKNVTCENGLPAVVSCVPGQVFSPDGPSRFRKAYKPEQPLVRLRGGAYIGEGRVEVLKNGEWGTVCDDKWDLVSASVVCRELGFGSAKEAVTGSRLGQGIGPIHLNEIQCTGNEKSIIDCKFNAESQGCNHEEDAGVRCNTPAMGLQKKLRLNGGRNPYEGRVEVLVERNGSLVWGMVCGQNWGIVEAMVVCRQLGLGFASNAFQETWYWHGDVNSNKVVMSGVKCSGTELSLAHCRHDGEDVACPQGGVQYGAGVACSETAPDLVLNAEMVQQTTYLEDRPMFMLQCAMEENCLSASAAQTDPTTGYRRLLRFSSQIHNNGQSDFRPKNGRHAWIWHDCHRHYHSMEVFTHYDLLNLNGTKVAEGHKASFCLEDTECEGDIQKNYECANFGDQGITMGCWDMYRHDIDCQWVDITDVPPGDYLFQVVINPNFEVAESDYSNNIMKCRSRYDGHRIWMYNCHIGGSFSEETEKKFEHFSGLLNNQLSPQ
LOXL1, sequence (Q08397 96-574, species assumed): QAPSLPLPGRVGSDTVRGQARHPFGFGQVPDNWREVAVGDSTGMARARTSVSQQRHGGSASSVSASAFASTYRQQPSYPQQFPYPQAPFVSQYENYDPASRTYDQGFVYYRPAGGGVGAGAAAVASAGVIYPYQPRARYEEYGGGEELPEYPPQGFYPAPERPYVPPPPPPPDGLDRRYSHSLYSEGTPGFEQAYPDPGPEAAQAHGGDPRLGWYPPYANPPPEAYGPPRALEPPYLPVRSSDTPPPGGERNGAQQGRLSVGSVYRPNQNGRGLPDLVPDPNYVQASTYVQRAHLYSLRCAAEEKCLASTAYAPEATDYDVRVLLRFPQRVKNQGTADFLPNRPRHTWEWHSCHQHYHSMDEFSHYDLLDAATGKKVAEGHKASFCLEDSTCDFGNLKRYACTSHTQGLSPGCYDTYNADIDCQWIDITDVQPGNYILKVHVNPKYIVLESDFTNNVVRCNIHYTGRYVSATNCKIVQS
Bovine LOX, sequence (P33072 170-418): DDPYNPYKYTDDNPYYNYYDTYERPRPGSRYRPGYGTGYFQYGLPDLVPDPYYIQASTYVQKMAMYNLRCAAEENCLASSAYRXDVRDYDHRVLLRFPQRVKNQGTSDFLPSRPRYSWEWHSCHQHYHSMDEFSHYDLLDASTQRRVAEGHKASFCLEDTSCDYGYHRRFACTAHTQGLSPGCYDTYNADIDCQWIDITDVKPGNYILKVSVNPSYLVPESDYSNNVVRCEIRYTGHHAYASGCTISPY
Recombinant human MAO-B, sequence (P27338 whole entry): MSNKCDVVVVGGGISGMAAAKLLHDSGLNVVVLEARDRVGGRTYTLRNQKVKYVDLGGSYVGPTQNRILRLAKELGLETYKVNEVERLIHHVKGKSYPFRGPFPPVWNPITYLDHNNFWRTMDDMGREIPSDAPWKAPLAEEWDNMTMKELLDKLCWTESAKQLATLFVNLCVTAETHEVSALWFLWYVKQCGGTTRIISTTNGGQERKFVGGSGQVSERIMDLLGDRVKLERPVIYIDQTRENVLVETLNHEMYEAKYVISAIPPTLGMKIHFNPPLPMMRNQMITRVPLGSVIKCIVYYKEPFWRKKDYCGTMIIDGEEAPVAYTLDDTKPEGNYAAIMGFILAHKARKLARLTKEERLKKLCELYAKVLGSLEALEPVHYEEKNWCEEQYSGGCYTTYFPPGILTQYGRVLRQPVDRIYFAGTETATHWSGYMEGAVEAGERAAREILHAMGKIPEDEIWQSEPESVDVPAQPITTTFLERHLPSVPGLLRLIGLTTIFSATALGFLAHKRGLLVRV
Human recombinant SSAO/VAP-1, sequence (Q16853 34-763): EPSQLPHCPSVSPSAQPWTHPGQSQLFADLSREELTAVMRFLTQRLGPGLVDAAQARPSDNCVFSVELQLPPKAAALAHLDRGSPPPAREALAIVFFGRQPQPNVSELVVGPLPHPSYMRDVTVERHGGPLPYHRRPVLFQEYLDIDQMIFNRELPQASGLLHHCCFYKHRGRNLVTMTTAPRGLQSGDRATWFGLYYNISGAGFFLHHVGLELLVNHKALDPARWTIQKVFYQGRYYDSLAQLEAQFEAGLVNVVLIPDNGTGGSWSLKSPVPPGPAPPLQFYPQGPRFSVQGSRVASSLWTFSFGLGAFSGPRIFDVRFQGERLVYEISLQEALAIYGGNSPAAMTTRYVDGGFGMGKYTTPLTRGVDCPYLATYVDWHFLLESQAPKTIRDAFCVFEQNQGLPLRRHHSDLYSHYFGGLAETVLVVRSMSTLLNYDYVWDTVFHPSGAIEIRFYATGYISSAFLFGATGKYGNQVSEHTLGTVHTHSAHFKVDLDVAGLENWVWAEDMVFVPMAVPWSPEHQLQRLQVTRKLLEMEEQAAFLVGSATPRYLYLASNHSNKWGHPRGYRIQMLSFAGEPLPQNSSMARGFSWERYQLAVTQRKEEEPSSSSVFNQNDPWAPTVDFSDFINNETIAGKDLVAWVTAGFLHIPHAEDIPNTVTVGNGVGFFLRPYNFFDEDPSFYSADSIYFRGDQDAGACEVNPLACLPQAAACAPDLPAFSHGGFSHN

`CN(C)S(=O)(=O)c1ccc(COc2ccccc2S(=O)(=O)C/C(F)=C/CN)cc1` [Compound 5, (Z)-4-((2-((4-amino-2-fluorobut-2-en-1-yl)sulfonyl)phenoxy)methyl)-N,N-dimethylbenzenesulfonamide hydrochloride] was tested, and the pIC50 [1] was under 4.52, the “LOXL1 - Recovery of activity. (%)” value (LOXL1) was 3.6% and the pIC50 (Recombinant human MAO-B) was under 4.52. The “LOXL2 - Recovery of activity. (%)” value (LOXL2 [2]) was 10.0%, the pIC50 (LOXL2 [3]) was over 6.00 and the pIC50 (Bovine LOX) was over 6.00.

For `NC/C=C(\F)CS(=O)(=O)c1cccc(C(=O)NC23CC4CC(CC(C4)C2)C3)c1` [Compound 13, N-(adamantan-1-yl)-3-(((Z)-4-amino-2-fluorobut-2-en-1-yl)sulfonyl)benzamide hydrochloride], the pIC50 [1] was under 4.52, the “LOXL1 - Recovery of activity. (%)” value (LOXL1) was 3.5% and the pIC50 (Recombinant human MAO-B) was over 5.00. For the same molecule, the “LOXL2 - Recovery of activity. (%)” value (LOXL2 [2]) was 8.9%, the pIC50 (LOXL2 [3]) was over 5.00 and the pIC50 (Bovine LOX) was over 5.00.

In the case of `CN(C)S(=O)(=O)c1cccc(Oc2cccc(S(=O)(=O)C/C(F)=C/CN)c2)c1` [Compound 17, (Z)-3-(3-(4-amino-2-fluorobut-2-enylsulfonyl)phenoxy)-N,N-dimethylbenzenesulfonamide hydrochloride], the “LOXL2 - Recovery of activity. (%)” value (LOXL2 [2]) was 5.3%, the pIC50 (LOXL2 [3]) was over 6.00 and the pIC50 (Bovine LOX) was over 5.00.

In the case of `NC/C=C(\F)CS(=O)(=O)c1ccc(C(=O)NC23CC4CC(CC(C4)C2)C3)cc1` [Compound 4, N-(adamantan-1-yl)-4-(((Z)-4-amino-2-fluorobut-2-en-1-yl)sulfonyl)benzamide hydrochloride], the pIC50 [1] was under 4.52, the “LOXL1 - Recovery of activity. (%)” value (LOXL1) was 16.7% and the pIC50 (Recombinant human MAO-B) was over 5.00. The “LOXL2 - Recovery of activity. (%)” value (LOXL2 [2]) was 21.2%, the pIC50 (LOXL2 [3]) was over 5.00 and the pIC50 (Bovine LOX) was over 5.00.

With `NC/C=C(\F)CS(=O)(=O)c1ccccc1C(=O)NC12CC3CC(CC(C3)C1)C2` [Compound 12, N-(adamantan-1-yl)-2-(((Z)-4-amino-2-fluorobut-2-en-1-yl)sulfonyl)benzamide hydrochloride] the pIC50 [1] was under 4.52, the “LOXL1 - Recovery of activity. (%)” value (LOXL1) was 2.6% and the pIC50 (Recombinant human MAO-B) was under 4.52. The “LOXL2 - Recovery of activity. (%)” value (LOXL2 [2]) was 9.3%, the pIC50 (LOXL2 [3]) was over 6.00 and the pIC50 (Bovine LOX) was over 5.00.

With `CN(C)S(=O)(=O)c1ccc(COc2ccc(S(=O)(=O)C/C(F)=C/CN)cc2)cc1` [Compound 10, (Z)-4-((4-((4-amino-2-fluorobut-2-en-1-yl)sulfonyl)phenoxy)methyl)-N,N-dimethylbenzenesulfonamide hydrochloride] the pIC50 [1] was under 4.52, the pIC50 (Recombinant human MAO-B) was under 4.52 and the “LOXL2 - Recovery of activity. (%)” value (LOXL2 [2]) was 15.2%. For the same molecule, the pIC50 (LOXL2 [3]) was over 5.00 and the pIC50 (Bovine LOX) was over 5.00.

For `CN(C)S(=O)(=O)c1ccc(Oc2ccccc2S(=O)(=O)C/C(F)=C/CN)cc1` [Compound 6, (Z)-4-(2-((4-amino-2-fluorobut-2-en-1-yl)sulfonyl)phenoxy)-N,N-dimethylbenzenesulfonamide hydrochloride], the pIC50 [1] was under 4.52, the “LOXL1 - Recovery of activity. (%)” value (LOXL1) was 2.5% and the pIC50 (Recombinant human MAO-B) was under 4.52. The “LOXL2 - Recovery of activity. (%)” value (LOXL2 [2]) was 10.4%, the pIC50 (LOXL2 [3]) was over 6.00 and the pIC50 (Bovine LOX) was over 5.00.

With `CN(C)S(=O)(=O)c1cccc(Oc2ccccc2S(=O)(=O)C/C(F)=C/CN)c1` [Compound 18, (Z)-3-(2-(4-amino-2-fluorobut-2-enylsulfonyl)phenoxy)-N,N-dimethylbenzenesulfonamide hydrochloride] the “LOXL2 - Recovery of activity. (%)” value (LOXL2 [2]) was 6.9%, the pIC50 (LOXL2 [3]) was over 6.00 and the pIC50 (Bovine LOX) was over 6.00.

For `CN(C)S(=O)(=O)c1ccc(COc2cccc(S(=O)(=O)C/C(F)=C/CN)c2)cc1` [Compound 9, (Z)-4-((3-((4-amino-2-fluorobut-2-en-1-yl)sulfonyl)phenoxy)methyl)-N,N-dimethylbenzenesulfonamide hydrochloride], the pIC50 [1] was under 4.52, the “LOXL1 - Recovery of activity. (%)” value (LOXL1) was 4.4% and the pIC50 (Recombinant human MAO-B) was over 5.00. The “LOXL2 - Recovery of activity. (%)” value (LOXL2 [2]) was 15.1%, the pIC50 (LOXL2 [3]) was over 6.00 and the pIC50 (Bovine LOX) was over 6.00.

With `CN(C)S(=O)(=O)c1ccc(Oc2cccc(S(=O)(=O)C/C(F)=C/CN)c2)cc1` [Compound 16, (Z)-4-(3-(4-amino-2-fluorobut-2-enylsulfonyl)phenoxy)-N,N-dimethylbenzenesulfonamide hydrochloride] the “LOXL2 - Recovery of activity. (%)” value (LOXL2 [2]) was 14.4%, the pIC50 (LOXL2 [3]) was over 6.00 and the pIC50 (Bovine LOX) was over 6.00.
